Measured values published in the supplement of paper PMC11061612.

Columns and labels:
Assay in all cases: combination Emax (second highest fraction inhibited in the dose matrix, 72 h); higher = more inhibition; extreme values may be limits of the assay
[1] = test system: C3A (Hepatocellular Carcinoma)
Outline: (§1)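 After 24 hours at 37°C and 5% CO2 in 1536-well plates, cells in DMEM/F12 or RPMI plus 10% FBS received two-drug dose matrices for 72 hours. Viability came from CellTiter-Glo 2.0 luminescence and was scaled as inhibition, anchored at 0 by vehicle wells and at 1 by blank wells. Combination Emax is taken as the second-highest inhibition in the matrix, and Bliss excess as the observed combination effect less EA + EB − EA·EB, with EA and EB the single-agent effects.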

[2] = test system: CFPAC-1 (Pancreatic Carcinoma)
Outline: as §1

[3] = test system: G-292-Clone-A141B1 (Osteosarcoma)
Outline: as §1

[4] = test system: HT-29 (Colorectal Carcinoma)
Outline: as §1

IGR-1 (Melanoma) = test system: IGR-1 (Melanoma)
Outline: as §1

[5] = test system: IHH-4 (Thyroid Gland Carcinoma)
Outline: as §1

[6] = test system: KARPAS-620 (Plasma Cell Myeloma)
Outline: as §1

[7] = test system: KATOIII (Gastric Carcinoma)
Outline: as §1

[8] = test system: MDA-MB-231 (Breast Carcinoma)
Outline: as §1

[9] = test system: NALM-6 (B-Lymphoblastic Leukemia)
Outline: as §1

[10] = test system: NCI-H1299 (Non-Small Cell Lung Carcinoma)
Outline: as §1

[11] = test system: NCI-H1694 (Small Cell Lung Carcinoma)
Outline: as §1

[12] = test system: NCI-H1793 (Lung Adenocarcinoma)
Outline: as §1

NCI-H2369 (Mesothelioma) = test system: NCI-H2369 (Mesothelioma)
Outline: as §1

RH-1 (Ewing's Sarcoma) = test system: RH-1 (Ewing's Sarcoma)
Outline: as §1

SN12C (Kidney Carcinoma) = test system: SN12C (Kidney Carcinoma)
Outline: as §1

[13] = test system: SNU-C5 (Colorectal Carcinoma)
Outline: as §1

[14] = test system: SW1088 (Low Grade Glioma)
Outline: as §1

[15] = test system: SW1783 (Low Grade Glioma)
Outline: as §1

[16] = test system: SW780 (Bladder Carcinoma)
Outline: as §1

Compound | combination Emax [1] | combination Emax [2] | combination Emax [3] | combination Emax [4] | combination Emax (IGR-1 (Melanoma)) | combination Emax [5] | combination Emax [6] | combination Emax [7] | combination Emax [8] | combination Emax [9] | combination Emax [10] | combination Emax [11] | combination Emax [12] | combination Emax (NCI-H2369 (Mesothelioma)) | combination Emax (RH-1 (Ewing's Sarcoma)) | combination Emax (SN12C (Kidney Carcinoma)) | combination Emax [13] | combination Emax [14] | combination Emax [15] | combination Emax [16]
CC1(C)CCC(CN2CCN(c3ccc(C(=O)NS(=O)(=O)c4ccc(NCC5CCOCC5)c([N+](=O)[O-])c4)c(Oc4cnc5[nH]ccc5c4)c3)CC2)=C(c2ccc(Cl)cc2)C1 [Venetoclax] + Cc1cc2ncnn2cc1Nc1ncc2c(n1)n(C1CCOCC1)c(=O)n2C [AZD7648] (first compound max 1 µM, 7x7, partner max 10 µM) | 0.212 | 0.275 | 0.221 | 0.205 | 0.174 | 0.259 | 0.989 | 0.214 | 0.356 | 0.789 | 0.224 | 0.223 | 0.41 | 0.164 | 0.242 | 0.218 | 0.261 | 0.341 | 0.237 | 0.163
COc1cccc2c1C(=O)c1c(O)c3c(c(O)c1C2=O)C[C@@](O)(C(=O)CO)C[C@@H]3O[C@H]1C[C@H](N)[C@H](O)[C@H](C)O1 [Doxorubicin] + Cc1cc2ncnn2cc1Nc1ncc2c(n1)n(C1CCOCC1)c(=O)n2C [AZD7648] (first compound max 1 µM, 7x7, partner max 10 µM) | 0.485 | 0.586 | 0.247 | 0.657 | 0.697 | 0.951 | 0.681 | 0.319 | 0.786 | 1 | 0.66 | 0.921 | 0.378 | 0.883 | 1 | 0.642 | 0.724 | 0.477 | 0.481 | 0.235
CN(CCO)CC[C@H](CSc1ccccc1)Nc1ccc(S(=O)(=O)NC(=O)c2ccc(N3CCC([C@@H](O)c4ccccc4-c4ccc(Cl)cc4)CC3)cc2)cc1S(=O)(=O)C(F)(F)F [AZD4320] + Cc1cc2ncnn2cc1Nc1ncc2c(n1)n(C1CCOCC1)c(=O)n2C [AZD7648] (first compound max 1 µM, 7x7, partner max 10 µM) | 0.248 | 0.134 | 0.624 | 0.149 | 0.33 | 0.193 | 1 | 0.151 | 0.637 | 0.975 | 0.268 | 0.76 | 0.356 | 0.0705 | 0.438 | 0.145 | 0.225 | 0.332 | 0.366 | 0.484
CCc1c2c(nc3ccc(O)cc13)-c1cc3c(c(=O)n1C2)COC(=O)[C@]3(O)CC [SN-38] + CN(C)CCCOc1ccc(-c2ccc3ncc4c(c3c2)n(C2CCOCC2)c(=O)n4C)cn1 [AZD0156] (first compound max 0.3 µM, 7x7, partner max 1 µM) | 0.557 | 0.789 | 0.213 | 0.89 | 0.497 | 1 | 0.437 | 0.16 | 0.658 | 1 | 0.529 | 0.968 | 0.505 | 0.32 | 1 | 0.738 | 0.757 | 0.54 | 0.748 | 0.33
CC(=O)c1c(C)c2cnc(Nc3ccc(N4CCNCC4)cn3)nc2n(C2CCCC2)c1=O [Palbociclib] + CC1(C)CCC(CN2CCN(c3ccc(C(=O)NS(=O)(=O)c4ccc(NCC5CCOCC5)c([N+](=O)[O-])c4)c(Oc4cnc5[nH]ccc5c4)c3)CC2)=C(c2ccc(Cl)cc2)C1 [Venetoclax] (first compound max 10 µM, 7x7, partner max 1 µM) | 0.447 | 0.311 | 0.0906 | 0.399 | 0.764 | 0.393 | 0.842 | 0.358 | 0.408 | 0.933 | 0.326 | 0.404 | 0.197 | 0.139 | 0.277 | 0.0441 | 0.468 | 0.429 | 0.0456 | 0.108
C=CCn1c(=O)c2cnc(Nc3ccc(N4CCN(C)CC4)cc3)nc2n1-c1cccc(C(C)(C)O)n1 [AZD1775] + O=C(c1cc(Cc2n[nH]c(=O)c3ccccc23)ccc1F)N1CCN(C(=O)C2CC2)CC1 [Olaparib] (first compound max 1 µM, partner max 10 µM) | 0.55 | 0.476 | 0.294 | 0.818 | 0.296 | 0.695 | 0.489 | 0.198 | 0.582 | 0.94 | 0.792 | 0.404 | 0.379 | 0.258 | 1 | 0.335 | 0.567 | 0.59 | 0.342 | 0.209
Cc1cc2ncnn2cc1Nc1ncc2c(n1)n(C1CCOCC1)c(=O)n2C [AZD7648] + CCN(CCO)CCCOc1ccc2c(Nc3cc(CC(=O)Nc4cccc(F)c4)[nH]n3)ncnc2c1 [AZD2811] (first compound max 10 µM, 7x7, partner max 1 µM) | 0.269 | 0.281 | 0.291 | 0.265 | 0.0874 | 0.454 | 0.554 | 0.263 | 0.477 | 0.771 | 0.37 | 0.273 | 0.26 | 0.235 | 0.952 | 0.262 | 0.295 | 0.686 | 0.293 | 0.29
COc1cccc(OCCCN)c1-c1cc(Nc2cnc(C#N)cn2)n[nH]1 [Prexasertib] + O=C(c1cc(Cc2n[nH]c(=O)c3ccccc23)ccc1F)N1CCN(C(=O)C2CC2)CC1 [Olaparib] (first compound max 1 µM, 7x7, partner max 10 µM) | 0.53 | 0.671 | 0.3 | 0.84 | 0.566 | 0.789 | 0.802 | 0.431 | 0.639 | 0.96 | 0.694 | 0.797 | 0.532 | 0.283 | 1 | 0.387 | 0.776 | 0.792 | 0.508 | 0.23
CC1(C)CCC(CN2CCN(c3ccc(C(=O)NS(=O)(=O)c4ccc(NCC5CCOCC5)c([N+](=O)[O-])c4)c(Oc4cnc5[nH]ccc5c4)c3)CC2)=C(c2ccc(Cl)cc2)C1 [Venetoclax] + CCN(CCO)CCCOc1ccc2c(Nc3cc(CC(=O)Nc4cccc(F)c4)[nH]n3)ncnc2c1 [AZD2811] (first compound max 1 µM, 7x7, partner max 1 µM) | 0.228 | 0.259 | 0.235 | 0.214 | 0.349 | 0.389 | 1 | 0.17 | 0.226 | 0.97 | 0.19 | 0.485 | 0.234 | 0.173 | 0.951 | 0.187 | 0.19 | 0.474 | 0.333 | 0.193
CC(=O)Nc1cccc(-n2c(=O)n(C3CC3)c(=O)c3c(Nc4ccc(I)cc4F)n(C)c(=O)c(C)c32)c1 [Trametinib] + Cc1nc(-c2cn3c(n2)-c2ccc(-c4cnn(C(C)(C)C(N)=O)c4)cc2OCC3)n(C(C)C)n1 [Taselisib] (first compound max 1 µM, 7x7, partner max 10 µM) | 0.903 | 0.826 | 0.921 | 0.981 | 0.759 | 0.78 | 1 | 0.793 | 0.868 | 0.689 | 0.68 | 0.324 | 0.778 | 0.294 | 0.594 | 0.45 | 0.794 | 0.696 | 0.7 | 0.541
Cn1cnc2c(F)c(Nc3ccc(Br)cc3Cl)c(C(=O)NOCCO)cc21 [Selumetinib] + C=CCn1c(=O)c2cnc(Nc3ccc(N4CCN(C)CC4)cc3)nc2n1-c1cccc(C(C)(C)O)n1 [AZD1775] (first compound max 10 µM, partner max 1 µM) | 0.777 | 0.453 | 0.102 | 0.889 | 0.578 | 0.742 | 0.849 | 0.451 | 0.577 | 0.98 | 0.652 | 0.371 | 0.423 | 0.276 | 1 | 0.241 | 0.722 | 0.55 | 0.392 | 0.369
Cn1cnc2c(F)c(Nc3ccc(Br)cc3Cl)c(C(=O)NOCCO)cc21 [Selumetinib] + CC(C)n1c(=O)n(C)c2cnc3cc(F)c(-c4ccc(OCCCN5CCCCC5)nc4)cc3c21 [AZD1390] (first compound max 10 µM, 7x7, partner max 0.3 µM) | 0.412 | 0.202 | 0.0339 | 0.709 | 0.296 | 0.436 | 0.472 | 0.475 | 0.501 | 0.205 | 0.23 | 0.206 | 0.218 | 0.129 | 0.048 | 0.237 | 0.351 | 0.14 | 0.0665 | 0.381
